{"source": "patent US20100172865A1", "about": "“METHODS OF ENHANCING HAIR GROWTH” (priority 2010, published 2010)", "key": {"hair loss": {"system": "hair loss", "settings": "clinical studies, taken by mouth; cited from earlier work"}, "scalp hair growth": {"system": "scalp hair growth", "assay": "Local application of insulin to the scalp, alone or before other agents, hair growth", "format": "in vivo, human", "description": "Wash scalp with mild shampoo. Avoid using hair conditioners which may coat the bald skin resulting in prevention of the effective absorption of insulin. This is followed by application of oxidant. In our invention, we can use any one of the above described antioxidants, but in this instance we are discussing povidine iodine. […] Allow it to dry, and follow it by application of insulin by a spray or swab repeatedly 2-3 times as it dries.\nApply the Wash dressing on the wound if need be.\nStep 4: Apply selected hair growth therapeutic agent, which includes prostaglandin and its derivatives which are already in the market and FDA approved.\nWe recommend the use of tocotrienols after insulin application so that this therapeutic agent can easily permeate the hair follicle and promote the hair growth.\nApply selected hair growth therapeutic agent using PGF 2α, and analogues."}, "[1]": {"system": "cultured human hair follicles", "settings": "cited from earlier work; for preventing hair follicles from entering into a catagen-like state, compared with insulin / rates of hair follicle growth compared with 10 micrograms/ml insulin: IGF-I 10 ng/ml, IGF-II 100 ng/ml; for effect on hair follicle growth: in the presence of 10 micrograms/ml insulin"}, "[2]": {"settings": "cited from earlier work"}, "[3]": {"system": "hair loss due to chemotherapy", "assay": "Insulin spray on the scalp during chemotherapy", "format": "in vivo, human", "settings": "3-5 units of insulin diluted in normal saline or ringers lactate, cancer patients", "protocol": "It is this experience that leads us to this invention. […] We also experimented with application of cold pack to the scalp 15 minutes after insulin spray, which caused the constriction of BV and reduced the amount of chemotherapy agent reaching the scalp hair which causes havoc on the hair root cells. These three simple methods reduced the profound loss of scalp hair to chemotherapy toxic effects in cancer patients during chemotherapy treatment. Insulin applied directly to the scalp had preventive effect on hair loss due to chemotherapy."}, "wound healing": {"system": "wound healing", "assay": "Local insulin on ulcers, tooth extraction wounds and gums", "format": "in vivo, human", "from_the_text": "We have used insulin for more than a decade to enhance the effectiveness of locally injected therapeutic agents specially cancers with chemotherapeutic agents with remarkable results. Our research data also supports that the insulin spray on indolent ulcers anywhere in the body, including the oral (gums) and nasal cavity."}, "[4]": {"system": "MCF-7 human breast cancer cells", "settings": "MCF-7 cells, insulin plus methotrexate; cited from earlier work"}, "[5]": {"from_the_text": "If one develops hypoglycemic symptoms due to any number of reasons, drink a sugar drink, eat a candy, or fruit cocktail."}, "[6]": {"settings": "in the absence of insulin, 0.01-100 ng/ml"}}, "note": "Like-named read-outs stand apart in the source and are kept apart here.", "data": [{"molecule": "CC(C)(C)NC(=O)[C@H]1CC[C@H]2[C@@H]3CC[C@H]4NC(=O)C=C[C@]4(C)[C@H]3CC[C@]12C", "note": "[Finasteride]", "values": [{"measurement": "share of men in whom hair loss stopped", "setting": "hair loss", "result": 83, "unit": "%"}]}, {"molecule": "COc1cc(/C=C/C(=O)CC(=O)/C=C/c2ccc(O)c(OC)c2)ccc1O", "note": "[curcumin]", "values": [{"measurement": "use as antioxidant for hair growth after application of insulin", "setting": "scalp hair growth; applied after insulin", "result": "used effectively"}]}, {"molecule": "IGF-I: Insulin-like growth factor I", "values": [{"measurement": "preventing hair follicles from entering into a catagen-like state, compared with insulin", "setting": "[1]", "result": "more potent than insulin"}, {"measurement": "rates of hair follicle growth compared with 10 micrograms/ml insulin", "setting": "[1]", "result": "identical"}, {"measurement": "stimulation of hair follicle growth", "setting": "[1]; [6]", "result": "stimulated hair follicle growth in a dose-dependent manner"}, {"measurement": "concentration stimulating maximum rates of hair follicle growth", "setting": "[1]; in the absence of insulin", "result": 10, "unit": "ng/mL"}, {"measurement": "effect on hair follicle growth", "setting": "[1]", "result": "no significant effect"}]}, {"molecule": "IGF-II: Insulin-like growth factor II", "values": [{"measurement": "preventing hair follicles from entering into a catagen-like state, compared with insulin", "setting": "[1]", "result": "more potent than insulin"}, {"measurement": "rates of hair follicle growth compared with 10 micrograms/ml insulin", "setting": "[1]", "result": "unable to stimulate hair follicle growth to the same extent as insulin"}, {"measurement": "stimulation of hair follicle growth", "setting": "[1]; [6]", "result": "stimulated hair follicle growth in a dose-dependent manner"}, {"measurement": "concentration stimulating maximum rates of hair follicle growth", "setting": "[1]; in the absence of insulin", "result": 100, "unit": "ng/mL"}, {"measurement": "effect on hair follicle growth", "setting": "[1]", "result": "no significant effect"}]}, {"molecule": "Regular (R) humulin or novolin: Short-acting insulin", "values": [{"measurement": "Duration of action", "setting": "[2]; in vivo", "result": "5 to 8", "unit": "h"}, {"measurement": "Onset of action", "setting": "[2]; in vivo", "result": "30 to 60", "unit": "min"}, {"measurement": "Peak effect", "setting": "[2]; short-acting insulin", "result": "2 to 5", "unit": "h"}]}, {"molecule": "growth hormone: growth hormone (somatotrophin)", "values": [{"measurement": "influence on hair follicle and hair growth", "setting": "[1]; growth hormone alone", "result": "no direct influence"}]}, {"molecule": "insulin: hormone secreted by beta cells in the islets of Langerhans in the pancreas", "values": [{"measurement": "hair loss during chemotherapy", "setting": "[3]", "result": "reduced the hair loss dramatically"}, {"measurement": "concentration giving maximum rates of hair follicle growth", "setting": "[1]; follicles maintained in medium containing insulin", "result": 10, "unit": "micrograms/ml"}, {"measurement": "stimulation of hair follicle growth", "setting": "[1]; over the range of 0.01 to 100 micrograms/ml", "result": "stimulated hair follicle growth in a dose-dependent manner"}, {"measurement": "gum diseases (periodontitis)", "setting": "wound healing; insulin and antibiotics such as doxycycline locally on the gums", "result": "eliminated gum diseases"}, {"measurement": "healing after teeth extraction", "setting": "wound healing; insulin soaked cotton swabs, 1-3-5 units in normal saline", "result": "rapid healing with reduced pain"}, {"measurement": "wound healing", "setting": "wound healing; insulin spray on indolent ulcers", "result": "accelerated wound healing"}, {"measurement": "increase of the cytotoxic effect of methotrexate", "setting": "[4]", "result": "up to 10,000 fold"}, {"measurement": "hypoglycemia", "setting": "[5]; after application of insulin to the scalp", "result": "none of our cases developed hypoglycemia"}, {"measurement": "side effect after application", "setting": "[5]; insulin preparations on the scalp", "result": "itching and redness"}, {"measurement": "darkening of the skin", "setting": "[5]; simple insulin applied to enhance hair growth", "result": "did not result in any appreciable darkening of the skin"}, {"measurement": "hair follicle transplant healing and growth", "setting": "scalp hair growth; insulin applied with hair follicle transplant, no second agent", "result": "rapid wound healing along with uptake and growth of hair follicle transplant"}, {"measurement": "hair growth", "setting": "scalp hair growth; insulin on its own", "result": "enhances the hair growth"}]}]}
